Measured values published in patent US8106055B2, “Substituted amide compounds” (Gruenenthal GmbH, priority 2007, dated 2012).

Molecular target: T1, human μ opiate receptor (Homo sapiens, UniProt P35372)
T1 construct: purchased PerkinElmer Life Sciences, Zaventem, Belgium RB-HOM; host or cells: CHO-K1 cells (membrane preparation)
Test: Affinity for the human μ opiate receptor ([3H]-naloxone displacement, CHO-K1 receptor membrane preparation, SPA)
Assay type: binding
Conditions: test concentration of 1 μM
In short: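 Readout is percent displacement of [3H]-naloxone (1 nmol/l) from human μ receptor in CHO-K1 membranes, measured at 1 μmol/l compound. Incubation runs 90 minutes at room temperature with WGA-SPA beads in Tris-HCl/BSA buffer; non-specific binding is defined with 100 μmol/l naloxone.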

T1 sequence (P35372 whole entry): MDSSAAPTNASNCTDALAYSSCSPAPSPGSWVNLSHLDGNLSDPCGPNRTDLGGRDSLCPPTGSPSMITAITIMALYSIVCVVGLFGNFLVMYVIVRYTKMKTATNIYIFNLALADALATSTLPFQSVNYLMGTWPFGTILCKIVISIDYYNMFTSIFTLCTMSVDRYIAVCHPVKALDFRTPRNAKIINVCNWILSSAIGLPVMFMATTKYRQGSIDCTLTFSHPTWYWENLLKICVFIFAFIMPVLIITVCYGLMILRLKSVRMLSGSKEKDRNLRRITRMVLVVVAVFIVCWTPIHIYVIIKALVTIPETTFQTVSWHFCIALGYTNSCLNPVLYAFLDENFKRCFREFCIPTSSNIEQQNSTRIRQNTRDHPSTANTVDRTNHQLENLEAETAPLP

COc1cc(C)c(S(=O)(=O)N2CCN(CCOCC(=O)NCCC3CCC(C(c4ccc(Cl)cc4)N(C)C)CC3)CC2)c(C)c1C (stereo not shown) [Example 320]
μ (binding on the μ opioid receptor, % inhibition): 65%

COc1ccc(S(=O)(=O)N2CCCCC2COCC(=O)NCC2CCC(C(c3ccc(Cl)cc3)N(C)C)CC2)cc1 (stereo not shown) [Example 321]
μ (binding on the μ opioid receptor, % inhibition): 70%

COc1ccc(S(=O)(=O)N2CCCCC2COCC(=O)NC2CCC(C(c3cccc(F)c3)N(C)C)CC2)c(OC)c1 (stereo not shown) [Example 322]
μ (binding on the μ opioid receptor, % inhibition): 70%

COc1ccc(S(=O)(=O)N2CCC(OCC(=O)NC3CCC(C(c4cccc(F)c4)N(C)C)CC3)C2)cc1OC (stereo not shown) [Example 323]
μ (binding on the μ opioid receptor, % inhibition): 67%

COc1ccc(S(=O)(=O)N(C)CCOCC(=O)NCC2CCC(C(c3ccc(Cl)cc3)N(C)C)CC2)cc1 (stereo not shown) [Example 324]
μ (binding on the μ opioid receptor, % inhibition): 62%

CN(C)C(c1cccc(F)c1)C1CCC(CCNC(=O)COCCN2CCN(S(=O)(=O)c3ccccc3)CC2)CC1 (stereo not shown) [Example 325]
μ (binding on the μ opioid receptor, % inhibition): 68%

CN(C)C(c1cccc(F)c1)C1CCC(CCNC(=O)COC2CCCN(S(=O)(=O)c3ccccc3)C2)CC1 (stereo not shown) [Example 326]
μ (binding on the μ opioid receptor, % inhibition): 67%

CCN(CCOCC(=O)NCC1CCC(C(c2ccc(F)cc2)N(C)C)CC1)S(=O)(=O)c1c(C)cc(OC)c(C)c1C (stereo not shown) [Example 327]
μ (binding on the μ opioid receptor, % inhibition): 67%

COc1ccc(S(=O)(=O)N2CCCCC2COCC(=O)NCC2CCC(C(c3cccc(F)c3)N(C)C)CC2)cc1OC (stereo not shown) [Example 329]
μ (binding on the μ opioid receptor, % inhibition): 66%

CN(C)C(c1ccc(F)cc1)C1CCC(NC(=O)COC2CCN(S(=O)(=O)c3cccc(C(F)(F)F)c3)C2)CC1 (stereo not shown) [Example 330]
μ (binding on the μ opioid receptor, % inhibition): 54%

CN(C)C(c1ccc(Cl)cc1)C1CCC(CNC(=O)COC2CCN(S(=O)(=O)c3cccc(C(F)(F)F)c3)C2)CC1 (stereo not shown) [Example 331]
μ (binding on the μ opioid receptor, % inhibition): 61%

Cc1cc(C)c(S(=O)(=O)N2CCC(OCC(=O)NC3CCC(C(c4ccc(F)cc4)N(C)C)CC3)C2)c(C)c1 (stereo not shown) [Example 332]
μ (binding on the μ opioid receptor, % inhibition): 58%

CN(C)C(c1cccc(F)c1)C1CCC(CNC(=O)COCCC2CCN(S(=O)(=O)c3ccccc3)CC2)CC1 (stereo not shown) [Example 333]
μ (binding on the μ opioid receptor, % inhibition): 65%

CN(C)C(c1ccc(F)cc1)C1CCC(CNC(=O)COCCN(C)S(=O)(=O)c2c(Cl)cccc2Cl)CC1 (stereo not shown) [Example 334]
μ (binding on the μ opioid receptor, % inhibition): 66%

CN(C)C(c1cccc(F)c1)C1CCC(NC(=O)COC2CCN(S(=O)(=O)c3ccccc3)CC2)CC1 (stereo not shown) [Example 335]
μ (binding on the μ opioid receptor, % inhibition): 58%

CN(C)C(c1ccc(F)cc1)C1CCC(NC(=O)COCCN(Cc2ccccc2)S(=O)(=O)c2ccccc2)CC1 (stereo not shown) [Example 336]
μ (binding on the μ opioid receptor, % inhibition): 59%

CN(C)C(c1ccc(F)cc1)C1CCC(CCNC(=O)COCC2CCCCN2S(=O)(=O)c2ccc(Cl)c(Cl)c2)CC1 (stereo not shown) [Example 337]
μ (binding on the μ opioid receptor, % inhibition): 64%

COc1ccc(S(=O)(=O)N2CCC(OCC(=O)NCCC3CCC(C(c4ccc(Cl)cc4)N(C)C)CC3)C2)cc1OC (stereo not shown) [Example 338]
μ (binding on the μ opioid receptor, % inhibition): 69%

COc1ccc(S(=O)(=O)N(C)CCOCC(=O)NCCC2CCC(C(c3ccc(Cl)cc3)N(C)C)CC2)cc1OC (stereo not shown) [Example 339]
μ (binding on the μ opioid receptor, % inhibition): 63%

COc1ccc(S(=O)(=O)N(C)CCOCC(=O)NCC2CCC(C(c3cccc(F)c3)N(C)C)CC2)cc1 (stereo not shown) [Example 340]
μ (binding on the μ opioid receptor, % inhibition): 69%

CN(C)C(c1cccs1)C1CCC(NC(=O)COCCN2CCN(S(=O)(=O)c3ccccc3)CC2)CC1 (stereo not shown) [Example 341]
μ (binding on the μ opioid receptor, % inhibition): 64%

CN(C)C(c1ccc(F)cc1)C1CCC(CNC(=O)COCCN(Cc2ccccc2)S(=O)(=O)c2ccccc2)CC1 (stereo not shown) [Example 342]
μ (binding on the μ opioid receptor, % inhibition): 57%
